Converted amounts (≈) assume the structure as drawn.
What was measured:
[1] = test system: heart taken from a rabbit; assay: Coronaro-dilatory effects in vitro on isolated rabbit heart (Langendorff's technique); details: for Coronary output, Duration in mins.: duration of the variation in coronary output
Method: They were measured in vitro on a heart taken from a rabbit, according to Langendorff's technique. The terpenophenoxy alkylamines according to the invention are administered to the aortic canal at a constant volume of 1 cm^3 for 1 minute.
The following table indicates the increase in the coronary output and the duration of this variation, depending on the doses.

[2] = test system: Staphylococcus aureus; assay: Bacteriostatic activity by the method of streaks in gelose media (minimum inhibitory concentration), Staphylococcus aureus; assay type: cell-based; details: Staphylococcus aureus (gram +ve)
Method: (§1) The bacteriostatic activity of the products according to the invention have been evaluated by the method of streaks in gelose media. This method comprises making increasing dilutions of the product to be tested, in nutritive gels poured in a Petri dish. The bacteria to be studied are introduced onto the geloses in parallel streaks by means of a platinum loop which has been immersed in a 24 hour old culture of the bacteria. […] The activity of the compounds has been studied vis a vis gram + ve (Staphylococcus aureus) and gram - ve (Escherichia coli) bacteria.

[3] = test system: Escherichia coli; assay: Bacteriostatic activity by the method of streaks in gelose media (minimum inhibitory concentration), Escherichia coli; assay type: cell-based; details: Escherichia coli (gram -ve)
Method: as §1

[4] = Oryctolagus cuniculus, 1 min, dose 3 μg/cm^3, aortic canal, 1 cm^3 for 1 minute, increase (+), read-out: Coronary output, Variations in %
[5] = Oryctolagus cuniculus, 1 min, dose 10 μg/cm^3, aortic canal, 1 cm^3 for 1 minute, increase (+), read-out: Coronary output, Variations in %
[6] = Oryctolagus cuniculus, 1 min, dose 1 μg/cm^3, aortic canal, 1 cm^3 for 1 minute, increase (+), read-out: Coronary output, Variations in %

SMILES | MIC [2] [µg/mL] | MIC [3] [µg/mL] | activation at 3 µg/mL [1, 4] [%] | activation at 10 µg/mL [1, 5] [%] | Coronary output, Duration in mins. ([1]; dose 3 μg/cm^3) [min] | Coronary output, Duration in mins. ([1]; dose 10 μg/cm^3) [min] | activation at 1 µg/mL [1, 6] [%] | Coronary output, Duration in mins. ([1]; dose 1 μg/cm^3) [min] | activation at 100 µg/mL ([1]; Oryctolagus cuniculus, 1 min, dose 100 μg/cm^3, aortic canal, 1 cm^3 for 1 minute, increase (+), read-out: Coronary output, Variations in %) [%] | Coronary output, Duration in mins. ([1]; dose 100 μg/cm^3) [min]
Cc1cc(OCC(O)CNC(C)C)c(C2CC3CC2C(C)C3(C)C)cc1C (centres unmarked) [Example 6, 3-(2'-isocamphyl-4',5'-dimethylphenoxy)-1-isopropylamino propan-2-ol] | 5 (≈ 13.4 µM) | – | 36 | 66 | 15 | 9 | – | – | – | –
CC1(C)C2CCC1(C)C(c1cc(Br)ccc1OCCN)C2 (centres unmarked) [Example 3, 2-(2'-isobornyl-4'-bromophenoxy) ethylamine] | 7.5 (≈ 21.3 µM) | 5 (≈ 14.2 µM) | 36 | – | > 15 | – | 4 | 3 | – | –
Cc1ccc(OCC(O)CN)c(C2CC3CC2C(C)C3(C)C)c1 (centres unmarked) [Example 12, 1-amino 3-(2'-isocamphyl-4'-methylphenoxy) propan-2-ol] | 7.5 (≈ 23.6 µM) | 5 (≈ 15.7 µM) | – | – | – | – | – | – | 31 | 4
Cc1cc(OCC(O)CNC(C)C)c(C2CC3CCC2(C)C3(C)C)cc1C (centres unmarked) [Example 11, 1-isopropylamino 3-(2'-isobornyl-4',5'-dimethylphenoxy) propan-2-ol] | – | – | 72 | 210 | 5 | 12 | – | – | – | –
CC(C)NCC(O)COc1ccccc1C1CC2CCC1(C)C2(C)C (centres unmarked) [Example 9, 1-Isopropylamino 3-(2'-isobornylphenoxy) propan-2-ol] | – | – | 95 | 102 | 4 | 4 | – | – | – | –
Cc1cc(OCC(O)CN)c(C2CC3CC2C(C)C3(C)C)cc1C (centres unmarked) [Example 5, 3-(2'-isocamphyl-4',5'-dimethylphenoxy)-1-amino propan-2-ol] | 5 (≈ 15.1 µM) | 5 (≈ 15.1 µM) | 70 | – | > 15 | – | 13 | 2 | – | –

The next lines start with results.

MIC [2] [µg/mL] | MIC [3] [µg/mL] | SMILES | activation at 3 µg/mL [1, 4] [%] | activation at 10 µg/mL [1, 5] [%] | Coronary output, Duration in mins. ([1]; dose 3 μg/cm^3) [min] | Coronary output, Duration in mins. ([1]; dose 10 μg/cm^3) [min] | activation at 1 µg/mL [1, 6] [%] | Coronary output, Duration in mins. ([1]; dose 1 μg/cm^3) [min] | activation at 100 µg/mL ([1]; Oryctolagus cuniculus, 1 min, dose 100 μg/cm^3, aortic canal, 1 cm^3 for 1 minute, increase (+), read-out: Coronary output, Variations in %) [%] | Coronary output, Duration in mins. ([1]; dose 100 μg/cm^3) [min]
5 (≈ 15.1 µM) | 5 (≈ 15.1 µM) | Cc1cc(OCC(O)CN)c(C2CC3CCC2(C)C3(C)C)cc1C (centres unmarked) [Example 4, 3-(2'-isobornyl-4,5'-dimethylphenoxy)-1-amino propan-2-ol] | 127 | 140 | 15 | 12 | – | – | – | –
7.5 (≈ 23.3 µM) | 7.5 (≈ 23.3 µM) | Cc1cc(OCCN)c(C2CC3CCC2(C)C3(C)C)cc1Cl (centres unmarked) [Example 10, 2-(2-isobornyl-4-chloro-5-methylphenoxy) ethylamine] | 60 | – | > 15 | – | 34 | > 15 | – | –
10 (≈ 28.9 µM) | 30 (≈ 86.8 µM) | Cc1cc(OCCNCCO)c(C2CC3CCC2(C)C3(C)C)cc1C (centres unmarked) [Example 7, N-hydroxyethyl-2-(2'-isobornyl-4',5'-dimethylphenoxy) ethylamine] | 51 | 109 | > 15 | > 15 | – | – | – | –
5 (≈ 13.6 µM) | 10 (≈ 27.3 µM) | Cc1cc(OCCN)c(C2CC3CCC2(C)C3(C)C)cc1Br (centres unmarked) [Example 2, 2-(2'-isobornyl-4'-bromo-5'-methylphenoxy) ethylamine] | 39 | – | > 15 | – | 23 | > 15 | – | –
5 (≈ 16.6 µM) | 7.5 (≈ 24.9 µM) | Cc1cc(OCCN)c(C2CC3CCC2(C)C3(C)C)cc1C (centres unmarked) [Example 1, 2-(2'-isobornyl-4',5'-dimethylphenoxy) ethylamine] | 37 | 55 | 5 | 5 | – | – | – | –
20 (≈ 65.9 µM) | 7.5 (≈ 24.7 µM) | CC1(C)C2CCC1(C)C(c1ccccc1OCC(O)CN)C2 (centres unmarked) [Example 8, 1-Amino 3-(2'-isobornylphenoxy) propan-2-ol] | 24 | 63 | 6 | 12 | – | – | – | –
